Source: publication PMC8151276, “An Integrated Approach toward NanoBRET Tracers for Analysis of GPCR Ligand Engagement” (Molecules, 2021)

Experiments:
Format in all cases: binding
[1] = target: T1, FZD7 (Homo sapiens, UniProt O75084); assay: NanoBRET screen HiBiT-FZD7 in HEK293; settings: FZD7
T1 construct: purchased Promega (in-house HiBiT-GPCR construct library, NanoBRET)
Procedure: (§1) Each tracer candidate was screened across the entire library of HiBiT-GPCR constructs using NanoBRET as the detection modality. As depicted in Figure 4A, the specificity of interactions was evaluated through decrease in BRET due to competitive displacement of a bound tracer by excess parental compound. Each tracer was analyzed for binding to each HiBiT-GPCR fusion in the absence and in the presence of competing parental compound. Briefly, HEK293 cells were transfected with HiBiT-GPCR constructs diluted into promoterless DNA to reduce expression and maximize translocation to the cell surface. Each tracer candidate was then screened at concentrations of 1 μM and 0.1 μM across cells expressing these fusions. Cells were treated for 1.5 h with tracer either alone or in the presence of 20 μM competing parental compound (i.e., control). BRET was measured upon addition of purified LgBiT and subsequent complementation with HiBiT genetically fused to a GPCR. The specificity of interactions was assessed through a decrease in BRET signal due to competitive displacement of the bound tracer. To further gauge the robustness of these interactions, the fold response over the control (i.e., BRETtracer/BRETcontrol) was calculated. We chose a 1.5-fold response, which translates to ≥7-fold signal over noise as the minimal threshold required to score an interaction as positive. […]. Below we highlight the screening results obtained for our exemplary fluorescent tracers based on Clozapine, Amitriptyline and AZD1283.
(§2) HiBiT-GPCR DNA constructs were diluted in 10 mM Tris pH 8 to a final concentration of 0.01 μg/μL, arrayed in 96-well plates and stored at −20 °C. For transfection, HEK293 cells were suspended in Opti-MEM (without phenol red) supplemented with 2% fetal bovine serum (Seradigm) and 100 units/mL penicillin–streptomycin (Gibco) at a final concentration of 220,000 cells/mL and dispensed into white 96-well plates at 90 μL/well. Subsequent transfections and screens were carried using an Agilent Bravo Automated Liquid Handling Platform. First, the 96-well HiBiT DNA arrays were diluted 25-fold in Opti-MEM (without serum or phenol red) to a final concentration of 0.0004 μg/μL and 20 μL of the diluted DNAs were transferred into new 96-well plates. Next, promoterless carrier DNA (1 μg/μL) was diluted 25-fold (0.04 μg/μL) and then dispensed into the diluted arrays at 20 μL/well. Following brief mixing, Viafect transfection reagent (Promega) diluted 16-fold into Opti-MEM was dispensed into the plates at 40 μL/well. After mixing by pipetting, plates were incubated for 10 min on the pipetting station deck. The DNA-transfection reagent complexes were then added to plates containing cells. To facilitate the screen, 10 μL of DNA-transfection reagent complexes were added in duplicates to the top 4 and bottom 4 rows, resulting in two identical 48-well arrays per plate. Plates with transfected cells were incubated for 18–20 h at 37 °C/5% CO2. A screen of each tracer across the entire library using two different concentrations requires duplicate plates of transfected cells. Depending on the number of tracers being screened, transfections can be scaled up using the same ratios. The next day, for each tracer, four 20× screening solutions in tracer dilution buffer (Promega) were prepared: two duplicates at final concentration of 20 μM and two duplicates at a final concentration of 2 μM. A competing unmodified compound was added to one of each duplicate at a final concentration of 400 μM. The four resulting solutions were diluted 4-fold in Opti-MEM without serum or phenol red to generate 5× solutions (5 µM and 0.5 µM tracer +/− 100 μM competing compound). To screen the library, a BioTek MultiFlo FX liquid dispenser was used to dispense 22.5 µL of tracer solution to the top 4 rows and 22.5 µL tracer + competing compound solution to the 4 bottom rows. Plates were briefly mixed on an orbital shaker and incubated for 1.5 h at room temperature. […]

[2] = target: T2, LTB4R (Homo sapiens, UniProt Q15722); assay: NanoBRET screen HiBiT-LTB4R in HEK293; settings: LTB4R
T2 construct: purchased Promega (in-house HiBiT-GPCR construct library, NanoBRET)
Procedure: as §1, §2

[3] = target: T3, HTR1E (Homo sapiens, UniProt P28566); assay: NanoBRET screen HiBiT-HTR1E in HEK293; settings: HTR1E
T3 construct: purchased Promega (in-house HiBiT-GPCR construct library, NanoBRET)
Procedure: as §1, §2

[4] = target: T4, CCR8 (Homo sapiens, UniProt P51685); assay: NanoBRET screen HiBiT-CCR8 in HEK293; settings: CCR8
T4 construct: purchased Promega (in-house HiBiT-GPCR construct library, NanoBRET)
Procedure: as §1, §2

[5] = target: T5, LGR4 (Homo sapiens, UniProt Q9BXB1); assay: NanoBRET screen HiBiT-LGR4 in HEK293; settings: LGR4
T5 construct: purchased Promega (in-house HiBiT-GPCR construct library, NanoBRET)
T5 sequence (Q9BXB1 25-951): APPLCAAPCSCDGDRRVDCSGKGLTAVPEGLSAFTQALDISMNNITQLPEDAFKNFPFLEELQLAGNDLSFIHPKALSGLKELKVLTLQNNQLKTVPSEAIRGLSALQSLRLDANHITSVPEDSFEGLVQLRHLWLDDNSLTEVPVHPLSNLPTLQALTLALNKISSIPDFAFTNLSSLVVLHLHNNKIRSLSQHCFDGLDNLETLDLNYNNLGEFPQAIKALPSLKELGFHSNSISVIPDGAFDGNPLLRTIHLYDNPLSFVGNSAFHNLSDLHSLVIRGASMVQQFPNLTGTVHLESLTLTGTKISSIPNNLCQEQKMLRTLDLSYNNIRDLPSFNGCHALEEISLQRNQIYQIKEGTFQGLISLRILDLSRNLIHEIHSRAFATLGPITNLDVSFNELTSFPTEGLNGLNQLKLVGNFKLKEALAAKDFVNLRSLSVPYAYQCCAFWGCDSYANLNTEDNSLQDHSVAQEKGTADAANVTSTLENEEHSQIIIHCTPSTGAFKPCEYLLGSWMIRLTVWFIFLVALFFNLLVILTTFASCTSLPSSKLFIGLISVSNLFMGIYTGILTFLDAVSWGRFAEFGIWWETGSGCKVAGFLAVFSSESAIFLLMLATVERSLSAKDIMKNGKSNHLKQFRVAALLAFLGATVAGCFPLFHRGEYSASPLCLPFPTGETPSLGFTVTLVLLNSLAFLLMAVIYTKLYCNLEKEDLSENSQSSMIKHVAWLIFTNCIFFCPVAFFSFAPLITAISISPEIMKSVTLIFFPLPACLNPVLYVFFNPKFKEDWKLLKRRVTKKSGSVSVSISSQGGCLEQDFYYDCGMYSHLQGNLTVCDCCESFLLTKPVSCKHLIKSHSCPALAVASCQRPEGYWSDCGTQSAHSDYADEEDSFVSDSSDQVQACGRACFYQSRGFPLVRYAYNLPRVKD
Procedure: as §1, §2

T3 sequence (P28566 whole entry): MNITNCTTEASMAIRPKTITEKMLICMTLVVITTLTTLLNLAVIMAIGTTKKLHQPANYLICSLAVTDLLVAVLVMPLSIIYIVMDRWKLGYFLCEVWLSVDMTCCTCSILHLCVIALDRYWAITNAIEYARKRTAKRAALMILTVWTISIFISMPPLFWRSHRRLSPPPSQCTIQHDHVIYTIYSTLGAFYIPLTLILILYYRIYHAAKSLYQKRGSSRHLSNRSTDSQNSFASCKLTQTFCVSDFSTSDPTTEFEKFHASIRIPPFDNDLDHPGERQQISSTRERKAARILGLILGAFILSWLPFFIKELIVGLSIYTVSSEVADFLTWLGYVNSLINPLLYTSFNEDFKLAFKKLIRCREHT
T4 sequence (P51685 whole entry): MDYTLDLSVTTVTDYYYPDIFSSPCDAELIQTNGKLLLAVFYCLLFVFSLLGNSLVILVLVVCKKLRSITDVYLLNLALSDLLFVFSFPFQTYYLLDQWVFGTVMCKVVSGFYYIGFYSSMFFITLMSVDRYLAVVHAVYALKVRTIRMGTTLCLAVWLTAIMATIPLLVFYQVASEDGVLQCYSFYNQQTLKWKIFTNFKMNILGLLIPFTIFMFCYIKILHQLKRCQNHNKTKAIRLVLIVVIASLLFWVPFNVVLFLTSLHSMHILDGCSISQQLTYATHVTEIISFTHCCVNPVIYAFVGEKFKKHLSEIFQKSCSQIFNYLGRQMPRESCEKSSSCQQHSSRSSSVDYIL
T2 sequence (Q15722 whole entry): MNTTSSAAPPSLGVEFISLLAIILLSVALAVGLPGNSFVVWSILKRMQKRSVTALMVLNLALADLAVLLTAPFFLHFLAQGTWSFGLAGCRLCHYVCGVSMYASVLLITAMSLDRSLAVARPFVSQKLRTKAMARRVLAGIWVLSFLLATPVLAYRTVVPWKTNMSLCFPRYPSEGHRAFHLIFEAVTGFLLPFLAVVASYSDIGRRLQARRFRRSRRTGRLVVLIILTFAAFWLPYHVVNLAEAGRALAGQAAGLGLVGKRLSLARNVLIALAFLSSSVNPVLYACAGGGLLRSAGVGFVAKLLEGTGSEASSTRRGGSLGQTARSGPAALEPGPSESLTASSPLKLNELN

SMILES | NanoBRET Fold Response ([1]; 0.1μM tracer) | NanoBRET Fold Response ([1]; 1μM tracer) | NanoBRET Fold Response ([2]; 0.1μM tracer) | NanoBRET Fold Response ([2]; 1μM tracer) | NanoBRET Fold Response ([3]; 0.1μM tracer) | NanoBRET Fold Response ([3]; 1μM tracer) | NanoBRET Fold Response ([4]; 0.1μM tracer) | NanoBRET Fold Response ([4]; 1μM tracer) | NanoBRET Fold Response ([5]; 0.1μM tracer) | NanoBRET Fold Response ([5]; 1μM tracer) | NanoBRET Fold Response ([1]; tracer 0.1μM) | NanoBRET Fold Response ([1]; tracer 1μM) | NanoBRET Fold Response ([2]; tracer 0.1μM) | NanoBRET Fold Response ([2]; tracer 1μM) | NanoBRET Fold Response ([3]; tracer 0.1μM) | NanoBRET Fold Response ([3]; tracer 1μM) | NanoBRET Fold Response ([4]; tracer 0.1μM) | NanoBRET Fold Response ([4]; tracer 1μM) | NanoBRET Fold Response ([5]; tracer 0.1μM) | NanoBRET Fold Response ([5]; tracer 1μM)
O=C(CCOCCOCCOCCOCCNC(=O)CCc1ccc2n1[B-](F)(F)[N+]1=C(c3ccc[nH]3)C=CC1=C2)NCCCN1CCN(C2=Nc3cc(Cl)ccc3Nc3ccccc32)CC1 [Clozapine-a-2-NB590] | 1.00 | 0.98 | 1.05 | 0.94 | 1.01 | 0.96 | 1.02 | 0.93 | 1.02 | 0.99 | – | – | – | – | – | – | – | – | – | –
CN1CCN(C2=Nc3cc(Cl)ccc3Nc3ccc(CNC(=O)CCOCCOCCOCCOCCNC(=O)CCc4ccc5n4[B-](F)(F)[N+]4=C(c6ccc[nH]6)C=CC4=C5)cc32)CC1 [Clozapine-b-2-NB590] | 1.01 | 0.98 | 1.04 | 1.04 | 0.99 | 0.97 | 0.88 | 0.89 | 1.00 | 1.04 | – | – | – | – | – | – | – | – | – | –
CN1CCN(C2=Nc3cc(Cl)ccc3N(CC(=O)NCCOCCOCCOCCOCCNC(=O)CCc3ccc4n3[B-](F)(F)[N+]3=C(c5ccc[nH]5)C=CC3=C4)c3ccccc32)CC1 [Clozapine-c-2-NB590] | 0.98 | 1.00 | 1.05 | 0.95 | 1.00 | 0.91 | 0.97 | 0.96 | 0.96 | 1.03 | – | – | – | – | – | – | – | – | – | –
O=C(CCOCCOCCOCCOCCNC(=O)CCc1ccc2n1[B-](F)(F)[N+]1=C(c3ccc[nH]3)C=CC1=C2)NCCCN1CCN(C2=Nc3ccccc3Oc3ccc(Cl)cc32)CC1 [Loxapine-a-2-NB590] | – | – | – | – | – | – | – | – | – | – | 1.03 | 1.05 | 1.05 | 0.96 | 1.01 | 0.96 | 1.02 | 1.10 | 0.97 | 1.04
